# According to US10774051B2, “6-membered heterocyclic derivatives and pharmaceutical composition comprising the same” (Shionogi & Co., Ltd., priority 2015, dated 2020):
# Target: human P2X7 receptor (Homo sapiens, UniProt Q99572, R270H/Y155H)
# Assay: Evaluation of human P2X7 receptor inhibitory activity (Yo-Pro uptake, BzATP stimulation, FLIPR TETRA)
# Assay type: cell-based
# Conditions: 1321N1 cells stably expressing human P2X7 receptor; BzATP stimulation, Yo-Pro uptake; read-out: IC50 (antagonistic activity for the human P2X7 receptor)
# Procedure, shortened: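 1321N1 cells stably expressing human P2X7 (T606C/G952A SNP variant), in HBSS buffer pH 7.4-7.5 with Yo-Pro, stimulated with BzATP; compound added 8 min after agonist. Fluorescence followed for 20 min on FLIPR; max-minus-min change gave % inhibition, IC50 by logistic fit.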
row,Structure (SMILES),IC50 [nM]
1,COc1cnc(Nc2cc(N3CCCC3=O)ccc2C)n(Cc2ccc(F)c(Cl)c2)c1=O [Compound I-0986],24
2,Cc1cc2c(cc1Nc1nc(=O)c(F)cn1Cc1ccc(F)cc1)OCCO2 [Compound I-0367],13
3,COc1cn(Cc2cc(F)cc(F)c2)c(Nc2c(C)ccc(C)c2F)nc1=O [Compound I-0928],10
4,CCOc1cc(Nc2nc(=O)c(OC)cn2Cc2ccc(F)c(Cl)c2)c(C)cc1C [Compound I-0792],9
5,COc1cn(Cc2cc(F)cc(Cl)c2)c(Nc2cccc3sccc23)nc1=O [Compound I-0670],20
6,Cc1nc2cc(C)c(Nc3nc(=O)c(Cl)cn3Cc3ccccc3)cc2s1 [Compound I-0786],25
7,COc1cc(C)c(Nc2cc(=O)n(C)c(=O)n2Cc2cc(F)c(F)c(F)c2)cc1C [Compound I-0991],29
8,Cc1c(Cl)cccc1Nc1nc(=O)c(N)cn1Cc1ccccc1 [Compound I-0022],17

# Same assay, conditions: 1321N1 cells stably expressing human P2X7 receptor; BzATP stimulation, Yo-Pro uptake; read-out: IC50 (antagonistic activity for the human P2X7 receptor), class symbol
row,Structure (SMILES),IC50 [nM]
1,COc1cn(Cc2ccc(F)c(F)c2)c(Nc2cc(Cl)c(Cl)cc2C)nc1=O [Compound I-0518],10 to 100
2,COc1cn(Cc2ccccc2)c(Nc2cc(Cl)c(Cl)cc2C)nc1=O [Compound I-0459],< 10
3,COc1ccc(Nc2nc(=O)c(OC)cn2Cc2cccc(Cl)c2)c(C)c1 [Compound I-0234],10 to 100
4,COc1cn(Cc2ccc(F)c(Cl)c2)c(Nc2ccc(N3CCOCC3)cc2C)nc1=O [Compound I-0548],10 to 100
5,COc1cn(Cc2ccccc2)c(Nc2cccc3c2CCNC3)nc1=O [Compound I-0050],500 to 1000
6,COc1cn(Cc2cccc(F)c2)c(Nc2cc(C)c(Cl)cc2C)nc1=O [Compound I-0168],< 10
7,COc1ccccc1CNc1nc(=O)c(OC)cn1Cc1ccccc1 [Compound I-0113],500 to 1000
8,Cc1cccc(Nc2nc(=O)c(Cl)cn2Cc2ccccc2)c1C [Compound I-0158],10 to 100
9,COc1cn(Cc2ccc(F)c(Cl)c2)c(Nc2cc(C)ccc2C)nc1=O [Compound I-0334],< 10
10,COc1cn(Cc2ccc(F)cc2)c(Nc2ccc(C)cc2C)nc1=O [Compound I-0375],10 to 100
11,COc1cn(Cc2ccccc2)c(Nc2cc(C)ccc2Cl)nc1=O [Compound I-0146],10 to 100
12,COc1cn(Cc2ccc(F)c(Cl)c2)c(Nc2cccc3sccc23)nc1=O [Compound I-0486],< 10
13,COc1cn(Cc2ccccc2)c(Nc2c(Cl)cccc2Cl)nc1=O [Compound I-0083],500 to 1000
14,COc1ccc(Nc2nc(=O)c(OC)cn2Cc2ccc(F)c(Cl)c2)c(C)c1 [Compound I-0227],10 to 100
15,COc1cn(Cc2ccccc2)c(Nc2cc(Cl)c(Cl)cc2C)nc1=O [Compound I-0476],< 10
16,COc1cn(Cc2cc(C)cc(F)c2)c(Nc2cccc(Cl)c2C)nc1=O [Compound I-0461],< 10
17,CCc1cc2c(cc1Nc1nc(=O)c(OC)cn1Cc1cccc(Cl)c1)CCC2 [Compound I-0164],< 10

row,Structure (SMILES),IC50 [nM]
1,CCc1cc(Cl)ccc1Nc1nc(=O)c(OC)cn1Cc1ccc(F)c(Cl)c1 [Compound I-0545],< 10
2,CCc1ccccc1Nc1nc(=O)c(F)cn1Cc1ccccc1 [Compound I-0157],10 to 100
3,COc1cn(Cc2ccc(F)c(Cl)c2)c(Nc2cccc(C)c2C)nc1=O [Compound I-0325],< 10
4,COc1cn(Cc2ccc(F)c(Cl)c2)c(Nc2ccc(Cl)cc2C)nc1=O [Compound I-0564],10 to 100
5,CCc1cc(OC)ccc1Nc1nc(=O)c(OC)cn1Cc1ccc(F)c(F)c1 [Compound I-0264],< 10
6,COc1cn(Cc2ccccc2)c(Nc2cccc(Cl)c2C)nc1=O [Compound I-0037],< 10
7,COc1cn(Cc2ccccc2)c(Nc2cc(O)ccc2Cl)nc1=O [Compound I-0156],100 to 500
8,COc1cn(Cc2cc(F)cc(Cl)c2)c(Nc2cc(OC(C)C)ccc2C)nc1=O [Compound I-0557],10 to 100
9,COc1cn(Cc2cc(F)cc(F)c2)c(Nc2cc(S(C)(=O)=O)c(C)cc2C)nc1=O [Compound I-0551],10 to 100
10,CCc1cc(OC)c(OC)cc1Nc1nc(=O)c(OC)cn1Cc1ccc(F)c(Cl)c1 [Compound I-0273],< 10
11,COc1cn(Cc2ccccc2)c(Nc2cc3c(cc2C)OCCO3)nc1=O [Compound I-0287],10 to 100
12,Cc1ccc(-c2nnco2)cc1Nc1nc(=O)c(F)cn1Cc1ccc(F)c(F)c1 [Compound I-0380],10 to 100
13,CCc1ccc(F)cc1Nc1nc(=O)c(OC)cn1Cc1ccc(F)c(Cl)c1 [Compound I-0567],10 to 100
14,COc1cn(Cc2cccc(Cl)c2)c(Nc2cccc3sccc23)nc1=O [Compound I-0484],10 to 100
15,CCc1cc(F)ccc1Nc1nc(=O)c(OC)cn1Cc1ccc(F)c(Cl)c1 [Compound I-0420],10 to 100
16,COc1cn(Cc2cccc(OC(F)(F)F)c2)c(Nc2cccc(Cl)c2C)nc1=O [Compound I-0304],500 to 1000

# Same assay, conditions: antagonistic activity for the human P2X7 receptor; read-out: IC50
row,Structure (SMILES),IC50 [nM]
1,Cc1cn(Cc2cc(F)cc(F)c2)c(Nc2ccc3[nH]ccc3c2C)nc1=O [Compound I-1164],< 10
2,COc1cn(Cc2cc(F)cc(F)c2)c(Nc2cc(Cl)cc3[nH]ccc23)nc1=O [Compound I-0822],10 to 100
3,COc1cn(Cc2ccc(F)c(Cl)c2)c(Nc2cc(Cl)c(F)cc2C)nc1=O [Compound I-0809],10 to 100
4,CCOc1ccc(Nc2nc(=O)c(OC)cn2Cc2ccc(F)c(Cl)c2)c(C)c1 [Compound I-0679],< 10
5,COc1cc(C)c(Nc2nc(=NC#N)c(OC)cn2Cc2cc(F)c(F)c(F)c2)cc1OC [Compound I-1287],10 to 100
6,COc1cn(Cc2cc(F)c(F)c(F)c2)c(Nc2cc(C)c(OC(F)(F)F)cc2C)nc1=O [Compound I-0925],10 to 100
7,COc1cn(Cc2ccccc2)c(Nc2cccc3c(=O)n(C)ccc23)nc1=O [Compound I-0901],100 to 500
8,Cc1nc2cc(C)c(Nc3nc(=O)c(CCO)cn3Cc3cc(F)c(F)c(F)c3)cc2s1 [Compound I-1088],10 to 100
9,COc1cc(C)c(Nc2nc(=O)c(F)cn2Cc2cc(F)cc(F)c2)cc1F [Compound I-1101],10 to 100
10,COc1cc(C)c(Nc2nc(=O)c(OC)cn2Cc2cc(F)cc(F)c2)cc1Cl [Compound I-0617],< 10
11,COc1cc(F)c(Nc2nc(=O)cnn2Cc2cc(F)c(F)c(F)c2)cc1OC [Compound I-1258],< 10
12,COc1cn(Cc2ccc(F)c(Cl)c2)c(Nc2ccc3c(c2C)COC3)nc1=O [Compound I-0907],< 10
13,COc1cn(Cc2ccc(F)c(Cl)c2)c(Nc2cc(N3CCOCC3)ccc2C)nc1=O [Compound I-0735],10 to 100
14,CCOc1cc(C)c(Nc2nc(=O)c(OC)cn2Cc2cc(F)c(F)c(F)c2)cc1C [Compound I-0624],< 10
15,COc1ccc(Nc2cc(=O)c(OC)cn2Cc2ccccc2)c(C)c1 [Compound I-0959],500 to 1000
16,COc1cc(Cl)c(Nc2nc(=O)c(OC)cn2Cc2cc(F)c(F)c(F)c2)cc1OC [Compound I-0848],< 10
17,COc1ccc(Nc2nc(=O)c(OC)cn2Cc2cc(F)cc(Cl)c2)c(C)c1 [Compound I-0608],10 to 100
18,COc1cn(Cc2ccccc2)c(Nc2cc(Oc3ccccn3)ccc2C)nc1=O [Compound I-0895],10 to 100
19,COc1cn(Cc2cc(F)cc(F)c2)c(Nc2cc3c(cc2C)OC(F)(F)O3)nc1=O [Compound I-0726],100 to 500

row,Structure (SMILES),IC50 [nM]
1,CCOc1cc(Nc2nc(=O)c(F)cn2Cc2ccc(F)c(F)c2)c(C)cc1F [Compound I-1033],< 10
2,Cc1cc2c(cc1Nc1nc(=O)c(F)cn1Cc1ccc(F)c(Cl)c1)COC2 [Compound I-1026],< 10
3,COc1cn(Cc2cc(F)cc(F)c2)c(Nc2cc(C)c(OCC(F)(F)F)cc2C)nc1=O [Compound I-0806],10 to 100
4,COc1cc(Nc2nc(=O)c(F)cn2Cc2cc(F)cc(F)c2)c(C)nc1F [Compound I-1118],100 to 500
5,COc1cn(Cc2cc(F)cc(F)c2)c(Nc2cc(CO)c(C)cc2C)nc1=O [Compound I-0600],< 10
6,COCc1ccc(C)c(Nc2nc(=O)c(F)cn2Cc2ccc(F)c(Cl)c2)c1 [Compound I-1085],< 10
7,COc1cn(Cc2cc(F)cc(Cl)c2)c(Nc2cc(OC(F)F)ccc2C)nc1=O [Compound I-0872],10 to 100
8,COc1cc(C)c(Nc2nc(=O)c(OC)cn2Cc2cc(F)c(F)c(F)c2)cc1F [Compound I-0804],< 10
9,Cc1cc2cc(Nc3nc(=O)c(F)cn3Cc3cc(F)c(F)c(F)c3)c(C)cc2[nH]1 [Compound I-1054],< 10
10,COc1cn(Cc2ccc(F)c(F)c2)c(Nc2cc3ncccc3cc2C)nc1=O [Compound I-0772],10 to 100
11,COc1cn(Cc2cccc(F)c2)c(Nc2cccc(C)c2Cl)nc1=O [Compound I-0643],10 to 100
12,Cc1cc2[nH]ccc2cc1Nc1nc(=O)c(F)cn1Cc1ccc(F)c(F)c1 [Compound I-1043],< 10
13,COc1cn(Cc2ccc(F)c(F)c2)c(Nc2cc(C)cc3[nH]ccc23)nc1=O [Compound I-0645],10 to 100
14,Cc1ccc(C)c(Nc2nc(=NC#N)c(F)cn2Cc2cc(F)c(F)c(F)c2)c1 [Compound I-1293],< 10
15,Cc1ccc(-c2ncco2)cc1Nc1nc(=O)c(F)cn1Cc1ccc(F)c(F)c1 [Compound I-0850],< 10
16,COc1cn(Cc2cc(F)cc(F)c2)c(Nc2cc(OC3CC3)ccc2C)nc1=O [Compound I-0892],10 to 100
17,Cc1ccc(-c2cscn2)cc1Nc1nc(=O)c(F)cn1Cc1ccc(F)c(F)c1 [Compound I-0861],< 10
18,Cc1cc(Nc2nc(=O)c(F)cn2Cc2cc(F)cc(F)c2)c2cc[nH]c2c1 [Compound I-0705],< 10
19,COc1cn(Cc2ccc(F)c(Cl)c2)c(Nc2cc(C)c(OC(F)(F)F)cc2C)nc1=O [Compound I-0923],10 to 100
